Source: patent US20220370418A1, “PHARMACEUTICAL COMBINATIONS COMPRISING A FURAZANOBENZIMIDAZOLES AND A CD40 AGONIST FOR USE IN THE TREATMENT OF NEOPLASTIC DISEASES” (Basilea Pharmaceutica International AG, priority 2019, published 2022)

Experiments:
[1] = cited from earlier work
SB28 glioma [2] = assay: Survival in syngeneic orthotopic SB28 glioma model in T- and B-cell deficient RAG1 knockout mice; assay type: in vivo, C57BL/6 RAG1 knockout mice
SB28 glioma [3] = assay: Survival in syngeneic orthotopic SB28 glioma mouse model; assay type: in vivo, C57BL/6 mice
GL261 glioma = assay: Survival in syngeneic orthotopic highly invasive GL261 glioma mouse model; assay type: in vivo, C57BL/6 mice
[4] = twenty-nine patients, doses from 0.01 to 0.3 mg/kg; cited from earlier work
[5] = Log-rank (Mantel-Cox) analysis, n=8-10 mice per group

N#CCCNc1nonc1-c1nc2ccccc2n1CC(=O)c1ccc(NC(=O)[C@@H](N)CCCCN)cc1 [BAL101553, (S)-2,6-Diamino-hexanoic acid [4-(2-{2-[4-(2-cyano-ethylamino)-furazan-3-yl]-benzoimidazol-1-yl}-acetyl)-phenyl]-amide]
water solubility (in words) [1]: highly water-soluble
survival of SB28 glioma bearing immunodeficient (RAG1 KO) mice (in words, FIG. 2) (SB28 glioma [2]; [5]): statistically significant, but smaller survival benefit than the combined regimen
median survival increase versus control (SB28 glioma [2]; SB28 intra-cranial, RAG1 KO mice, same treatment schedule as Example 1): 33%
median survival increase, less than measured in the combination regimen (SB28 glioma [2]; single agent versus combination, SB28, RAG1 KO mice): 23%
survival of SB28 glioma bearing mice (in words, FIG. 1) (SB28 glioma [3]; [5]): statistically significant but smaller survival benefit than the combined regimen
median survival increase versus control (SB28 glioma [3]; SB28 intra-cranial, C57BL/6 mice, BAL101553 25 mg/kg orally daily day 5-9, 12-16, 19-23, 26-30, anti-CD40 antibody 100 μg per animal IP days 7, 12, 16): 55%
median survival increase, less than in the combination regimen (SB28 glioma [3]; single agent versus combination, SB28, C57BL/6 mice): 26%
median survival increase versus control (GL261 glioma; GL261 intra-cranial, C57BL/6 mice, same treatment schedule as Examples 1 and 2): 18%
survival of GL261 glioma bearing mice (in words, FIG. 3) (GL261 glioma; Log-rank (Mantel-Cox) analysis, n=10 mice per group): do not show any significant prolongation of survival
median survival increase, less than measured in the combination regimen (GL261 glioma; single agent versus combination, GL261, C57BL/6 mice): 25%

CP-870,893: fully human IgG2 agonistic CD40 antibody developed by Pfizer
maximum tolerated dose (MTD) [4]: 0.2 mg/kg
